From patent publication US20230172204A1 (BASF SE, priority 2020, published 2023)

Tests used:
[1] = system: Phakopsora pachyrhizi (F129L); experiment: Protective control of soybean rust on soybeans (PHAKPA P6); assay type: in vivo; conditions: soybean rust F129L; for % PHAKPA (F129L) Disease level P6 at 4 ppm: protective P6, 4 ppm; for % PHAKPA (F129L) Disease level P6 at 16 ppm: protective P6, 16 ppm
[2] = system: Phakopsora pachyrhizi (F129L); experiment: Protective control of soybean rust on soybeans (PHAKPA P2); assay type: in vivo; conditions: soybean rust F129L; for % PHAKPA (F129L) Disease level P2 at 4 ppm: protective P2, 4 ppm; for % PHAKPA (F129L) Disease level P2 at 16 ppm: protective P2, 16 ppm

SMILES | % PHAKPA (F129L) Disease level P6 at 4 ppm [1] [%] | % PHAKPA (F129L) Disease level P6 at 16 ppm [1] [%] | % PHAKPA (F129L) Disease level P2 at 4 ppm [2] [%] | % PHAKPA (F129L) Disease level P2 at 16 ppm [2] [%]
CO/N=C(/C(=O)OC)c1cccc(C)c1CO/N=C(\C)c1ccccc1C#N [compound 224] | 100 | 100 | 97 | 100
CNC(=O)/C(=N/OC)c1cccc(C)c1CO/N=C(\C)c1ccccc1C#N [compound 225] | 100 | 97 | 83 | 27
CNC(=O)/C(=N/OC)c1cccc(C)c1CO/N=C(\C)c1cccc(OC/C(C)=N/OC)c1 [compound 226] | 57 | 7 | 28 | 3
CO/N=C(\C)COc1cccc(/C(C)=N/OCc2c(C)cccc2/C(=N\OC)C(=O)OC)c1 [compound 227] | 100 | 57 | 100 | 47
CNC(=O)/C(=N/OC)c1cccc(C)c1CO/N=C(\C)c1cc(Cl)cc(C(F)(F)F)c1 [compound 228] | 22 | 2 | 5 | 0
CO/N=C(/C(=O)OC)c1cccc(C)c1CO/N=C(\C)c1ccc(C)c(C(F)(F)F)c1 [compound 229] | 77 | 6 | 27 | 2
CNC(=O)/C(=N/OC)c1cccc(C)c1CO/N=C(\C)c1ccc(C)c(C(F)(F)F)c1 [compound 230] | 73 | 4 | 22 | 1
CNC(=O)/C(=C/OC)c1cccc(C)c1CO/N=C(\C)c1cccc(C(F)(F)F)c1 [compound 232] | 100 | 83 | 100 | 73
CNC(=O)/C(=N/OC)c1cccc(C)c1CO/N=C(\C)c1c(F)ccc(C(F)(F)F)c1NC [compound 233] | 87 | 27 | 100 | 57
CNC(=O)/C(=N/OC)c1cccc(C)c1CO/N=C(\CC1CC1)c1cccc(C(F)(F)F)c1 [compound 234] | 53 | 15 | 53 | 18
CNC(=O)/C(=N/OC)c1cccc(C)c1CO/N=C(\CC(C)C)c1cccc(C(F)(F)F)c1 [compound 235] | 87 | 77 | 100 | 73
CO/N=C(/C(=O)OC)c1cccc(C)c1CO/N=C(\C)c1ccccc1OC(F)(F)F [compound 236] | 97 | 100 | 97 | 77
CNC(=O)/C(=N/OC)c1cccc(C)c1CO/N=C(\C)c1cc(C(F)(F)F)cc(F)c1NC [compound 238] | 100 | 77 | 100 | 53
CO/N=C(/C(=O)OC)c1cccc(C)c1CO/N=C(\C)c1cc(Br)cc(F)c1F [compound 240] | 73 | 3 | 70 | 8
CNC(=O)/C(=N/OC)c1cccc(C)c1CO/N=C(\C)c1cc(Br)cc(F)c1F [compound 241] | 33 | 12 | 3 | 0
C#Cc1cc(F)c(F)c(/C(C)=N/OCc2c(C)cccc2/C(=N\OC)C(=O)OC)c1 [compound 242] | 87 | 20 | 87 | 10
C#Cc1cc(F)c(F)c(/C(C)=N/OCc2c(C)cccc2/C(=N\OC)C(=O)NC)c1 [compound 243] | 37 | 1 | 4 | 0
CNC(=O)/C(=N/OC)c1cccc(C)c1CO/N=C(\C)c1cc(Cl)ccc1C(F)(F)F [compound 245] | 13 | 2 | 28 | 8
CO/N=C(/C(=O)OC)c1cccc(C)c1CO/N=C(\C)c1cc(Cl)c(F)c(Cl)c1 [compound 246] | 77 | 7 | 40 | 15
CNC(=O)/C(=N/OC)c1cccc(C)c1CO/N=C(\C)c1cc(Cl)c(F)c(Cl)c1 [compound 247] | 33 | 8 | 16 | 2
CNC(=O)/C(=N/OC)c1cccc(C)c1CO/N=C(\C)c1cc(F)ccc1Br [compound 248] | 30 | 2 | 33 | 2
CO/N=C(/C(=O)OC)c1cccc(C)c1CO/N=C(\C)c1cc(F)ccc1C(F)(F)F [compound 249] | 90 | 43 | 87 | 37
CO/N=C(/C(=O)OC)c1cccc(C)c1CO/N=C(\CC(F)(F)F)c1cccc(C(F)(F)F)c1 [compound 250] | 90 | 80 | 90 | 90
CO/N=C(/C(=O)OC)c1cccc(C)c1CO/N=C(\C)c1cc(Cl)ccc1C(F)(F)F [compound 251] | 80 | 80 | 80 | 80
CNC(=O)/C(=N/OC)c1cccc(C)c1CO/N=C(\C)c1ccccc1OC(F)F [compound 252] | 87 | 32 | 50 | 3
CO/N=C(/C(=O)OC)c1cccc(C)c1CO/N=C(\C)c1ccccc1OC(F)F [compound 253] | 100 | 57 | 100 | 87
